Reference: US20250129329A1, “CULTURE MEDIUM FOR HEPATOMA ORGANOID CULTURE, HEPATOMA ORGANOID CULTURE METHOD, AND APPLICATION THEREOF” (PRECEDO PHARMACEUTICALS CO., LTD, priority 2021, published 2025)

Columns and labels:
Format in all cases: cell-based, human
[1] = tested on: hepatoma organoids isolated from liver cancer tissue; test: Effects of medium additives on proliferation of hepatoma organoids (Example 1); conditions: additive in basic medium at the final concentration; organoid diameters after 7 days compared with Basic Medium
Method: First, a basic medium containing initial medium was prepared. […] In this embodiment, the formulation of the basic medium is: DMEM/F12 medium (purchased from Corning)+100 μg/mL Primocin (purchased from InvivoGen, 0.2% (v/v), commercial product has a concentration of 50 mg/ml).
Different types of additives (see Table 1) were added to the basic medium to prepare culture mediums for hepatoma organoid with different components.
Tissue samples (intraoperative) of liver cancer solid tumor were obtained from patients by professional medical practitioner of professional medical institutions, and all patients have signed the informed consent. Intraoperative samples having the size of 0.25 cm3 were stored and transported using commercial tissue preservation solution (manufacturer: Miltenyi Biotec).
• 3.1. Tissue samples were transferred from the ultra-clean workbench to a culture dish, and the tissue with blood was removed. The tissue samples were rinsed twice with basic medium, and then were transferred to another culture dish and mechanically cut with a sterile scalpel into tissue blocks of 1×1×1 mm3 in size. • 3.2. The cut intraoperative tissues were aspirated into a 15 mL centrifuge tube, to which 5 mL of basic medium was added, fully mixed, and then centrifuged at 1500 rpm for 4 minutes. • 3.3. The supernatant was discarded, and the resultant was added with 1:3 mixture of basic medium and tissue digestion solution (the amount of tissue digestion solution added was about 10 mL tissue digestion solution for 1 g of tumor tissue). The samples were marked with names and numbers, sealed with sealing film, and then digested in a shaker (Zhichu Instrument ZQLY-180N) at 37° C., 300 rpm. The completion of digestion was determined via observation every 30 minutes, based on the existing of visible particles or not. • 3.4. After the digestion was completed, undigested tissue mass was filtered out through a […] filter mash. The tissue mass on the filter mash was rinsed into the centrifuge tube with basic medium to reduce cell loss. The resultant was centrifuged at 25° C., 1500 rpm for 4 minutes. • 3.5. […] If there were blood cells, 8 mL blood cell lysate (purchased from Sigma) was added in the resultant and fully mixed, lysed at 4° C. for 20 minutes, with inverting and mixing once during the process. The resultant was centrifuged at 25° C., 1500 rpm for 4 minutes. • 3.6. The supernatant was discarded and 2 mL basic medium was added to resuspend the cells for reserve.
• 4.1 Microscopic observation: a small amount of resuspended cells were plated in a culture dish, and the density and morphology of cancer cells were observed under a microscope (CNOPTEC, BDS400); • 4.2 Viable cell counting: 12 μL of the resuspended cell suspension was fully mixed with 12 μL of trypan blue staining solution (Manufacturer: Sangon Biotech (Shanghai) Co., Ltd.), and then 20 μL of the mixture was added into a cell counting plate (Manufacturer: Countstar, specifications: 50 pieces/box).
The primary liver cancer cells obtained in the above steps were resuspended with pre-cooled DMEM/F12 and counted. The cell density was diluted to 5-10×10^6 cells/mL and 400 μL of the diluted cell suspension was added with an equal volume of Matrigel matrix gel (Corning) and mixed gently and well. Then, the mixture was inoculated at 5 μL/well onto a 96-well plate. The inoculated plate was placed into an incubator for 30 minutes until Matrigel is completely coagulated. Then, the culture mediums as shown in Table 1 that have been come to room temperature in advance were added, respectively, and the culture mediums were renewed every three days for expansion and cultivation. After 7 days, the cultured organoids were photographed and the diameters of the organoids were measured and compiled, so as to compare the promoting effects of various factors on the proliferation of hepatoma organoids. As the experimental control, the basic medium without any additives was used.

[2] = tested on: hepatoma organoids (samples GL-003, GL-004); test: Effects of different concentrations of factors in the culture medium on proliferation of hepatoma organoids (Example 2); conditions: added to HC-3 medium lacking that factor; organoid diameter ratio to Blank Control after 10 days, FIGS. 1A-1K
Method: Primary liver cancer cells were obtained from intraoperative tissue samples (Nos. GL-003, GL-004) in accordance with the method described in Section (2), Example 1, and the organoids were cultured using the culture medium formulations as shown in Table 2 below.
When using the culture medium of Formulation 1, to a 96-well plate inoculated with organoids was added the prepared B27 in addition to the medium of Formulation 1, with 200 μL per well, such that the final concentrations of B27 were 1:25, 1:50 and 1:100, respectively; a well of Blank Control (BC) was set using the medium of Formulation 1. The final concentrations of other factors added in this series of culture mediums were the same as those in HC-3 culture medium. The experiments of Formulations 1-11 below were also conducted in the same way and will not be described in details.
(§1) When using the culture medium of Formulation 2, to a 96-well plate inoculated with organoids was added the prepared HGF in addition to the medium of Formulation 2, with 200 μL per well, such that the final concentrations of HGF were 1 ng/ml, 5 ng/mL and 25 ng/mL, respectively; a well of Blank Control (BC) was set using the medium of Formulation 2.
as §1, with “3,” for “2,”, “ITS cell culture additive” for “HGF”, “1:300, 1:100” for “1 ng/ml, 5 ng/mL”, “1:30,” for “25 ng/mL,”, “3.” for “2.”
as §1, with “4,” for “2,”, “Y27632” for “HGF”, “3 μM, 10 μM” for “1 ng/ml, 5 ng/mL”, “30 μM,” for “25 ng/mL,”, “4.” for “2.”
as §1, with “6,” for “2,”, “NRG1” for “HGF”, “ng/ml” for “ng/mL”, “ng/ml,” for “ng/mL,”, “6.” for “2.”
as §1, with “7,” for “2,”, “insulin” for “HGF”, “µL” for “μL”, “μg/mL, 3 μg/mL” for “ng/ml, 5 ng/mL”, “10 μg/mL,” for “25 ng/mL,”, “7.” for “2.”
as §1, with “8,” for “2,”, “EGF” for “HGF”, “2” for “1”, “6 ng/ml” for “5 ng/mL”, “18 ng/ml,” for “25 ng/mL,”, “8.” for “2.”
as §1, with “9,” for “2,”, “GlutaMAX” for “HGF”, “1:300, 1:100” for “1 ng/ml, 5 ng/mL”, “1:30,” for “25 ng/mL,”, “9. […]” for “2.”

[3] = tested on: hepatoma organoids (sample GL-006); test: Drug screening on hepatoma organoids, CellTiter-Glo viability and microscopy (Example 5); conditions: for inhibitory effect on the growth of hepatoma organoids (drug inhibition rate): two concentrations (1 and 0.1 mM stocks diluted 1000 times), 5 days, CellTiter-Glo, FIG. 5B; for growth of organoids after drug treatment (photos): after 5 days of drug treatment, microscope photos, FIG. 5A
Method: Primary liver cancer cells were isolated from liver cancer intraoperative sample (GL-006) according to the method described in Section (2), Example 1, and were cultured to obtain organoids by using HC-3 culture medium until the diameters of hepatoma organoids exceeded 50 μm, which were then used for drug screening.
Prepare Three drugs with two concentration gradients were prepared according to the table below (Bortezomib, Aclarubicin, and Doxorubicin; all purchased from MCE) and store for use.
The prepared drugs were taken out and placed at room temperature. The drugs were diluted 1000 times with HC-3 culture medium for later use. The organoids cultured and obtained according to step (1) were taken out from the incubator, the culture mediums were removed from the wells, and the culture mediums containing drugs were slowly added into the wells along the well wall. After the addition of drug, disinfect the surface of the 96-well plate was sterilized and then was transferred to the incubator for further cultivation. After 5 days, the viability of organoids were measured.
CellTiter-Glo luminescent reagent (purchased from Promega) was taken out from a 4° C. refrigerator, and 10 mL of the reagent was added into the loading slot; the 96-well plate for testing was taken out from the incubator, and 20 μL CellTiter-Glo luminescent reagent was added into each well. After standing for 10 minutes followed by mixing well, the test was conducted by using a multi-functional microplate reader (Envision, Perkin Elmer).

Molecule | Level of promoting proliferation [1] | preferable amount in the culture medium for promoting organoid proliferation [2] | inhibitory effect on the growth of hepatoma organoids (drug inhibition rate) [3] | growth of organoids after drug treatment (photos) [3]
basic fibroblast growth factor, bFGF: growth factor medium additive, supplier R&D | − |  |  | 
CN1C(=O)C(c2c(F)cccc2F)N(C)c2nc(Nc3ccc(S(N)(=O)=O)cc3)ncc21 (stereo not shown) [Compound 1, 4-((7-(2,6-Difluorophenyl)-5,8-dimethyl-6-oxo-5,6,7,8-tetrahydropteridin-2-yl)amino)benzsulfamide] | + | 2.5 to 10 µM |  | 
COc1cccc2c1C(=O)c1c(O)c3c(c(O)c1C2=O)C[C@@](O)(C(=O)CO)C[C@@H]3O[C@H]1C[C@H](N)[C@H](O)[C@H](C)O1 [Doxorubicin] |  |  | no inhibitory effect | 
Oc1ccc(-c2nc(-c3ccncc3)c(-c3ccc(F)cc3)[nH]2)cc1 [SB202190] | − |  |  | 
CC[C@@]1(O)C[C@H](O[C@H]2C[C@H](N(C)C)[C@H](O[C@H]3C[C@H](O)[C@H](O[C@H]4CCC(=O)[C@H](C)O4)[C@H](C)O3)[C@H](C)O2)c2c(cc3c(c2O)C(=O)c2c(O)cccc2C3=O)[C@H]1C(=O)OC [Aclarubicin] |  |  | varied significantly | significantly inhibited
Cc1cccc(-c2nn(C(=S)Nc3ccccc3)cc2-c2ccnc3ccccc23)n1 [Compound A8301] | − |  |  | 
C[C@@H](N)[C@H]1CC[C@H](C(=O)Nc2ccncc2)CC1 [Compound Y27632] | + | 3 to 30 µM |  | 
epidermal growth factor, EGF: growth factor medium additive, supplier R&D (NSDSECPLSHDGYCLHDGVCMYIEALDKYACNCVVGYIGERCQYRDLKWWELR; Epidermal growth factor; UniProt P01133 971-1023, looked up) | + | 2 to 18 ng/mL |  | 
CC(C)C[C@H](NC(=O)[C@H](Cc1ccccc1)NC(=O)c1cnccn1)B(O)O [Bortezomib] |  |  | strong inhibitory effects | significantly inhibited
insulin: medium additive, supplier Peprotech | + | 1000 to 10000 ng/mL |  | 
C[C@@H]1C[C@H]2[C@@H]3CCC4=CC(=O)C=C[C@]4(C)[C@@]3(F)[C@@H](O)C[C@]2(C)[C@@]1(O)C(=O)CO [dexamethasone] |  | 0.1 to 1 µM |  | 
Cc1c[nH]c(-c2cnc(NCCNc3ccc(C#N)cn3)nc2-c2ccc(Cl)cc2Cl)n1 [CHIR99021] | − |  |  | 
hepatocyte growth factor, HGF: growth factor medium additive, supplier R&D | + |  |  | 
